# According to PubChem BioAssay AID1259426 (Fisher Drug Discovery Resource Center, 2018):
# pEC50: −log10 of the molar value. Several values for one entry are separate records, joined by “and”; a condition that tells them apart may be missing. Identical values can stand only once. Activity calls are given as the source filed them.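 How the source made its calls: active means EC50 under a set limit in control cells lacking the mosquito receptor, marking a fluorescence artifact; inactive means the rest.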
# Target: HEK293 Galpha15/GCaMP6s without NPYLR7, calcium fluorescence
# Test: calcium response in NPYLR7-null HEK293 cells, dose response, counter-screen for mosquito NPYLR7 agonist project, cell-based, HEK293 lacking NPYLR7 (AID 1259426);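 further: potency for a rise in fluorescence over baseline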
SMILES,pEC50,EC50
CC(C(=O)O)N1C(=O)/C(=C/c2ccc(N(C)C)cc2)SC1=S (configuration not stated),5.11,
COc1cc(C=C2SC(=S)NC2=O)cc(Br)c1O,,> 20 µM (inactive)
Cc1cc(C)c2cc3c(cc2n1)CCN3CC(O)CO (configuration not stated),5.56,
COc1ccc(C(C)NS(=O)(=O)c2ccc(Cl)cc2C(F)(F)F)cc1F (configuration not stated),4.82,
O=C1NC(c2ccc3c(c2)OCO3)C(C(=O)c2ccccc2)C(O)(C(F)(F)F)N1 (configuration not stated),,> 20 µM (inactive)
CCN1C(=Cc2cc(C)[n+](C3CCCCC3)c(C)c2)Sc2ccccc21,,> 20 µM (inactive)
CC(=O)Nc1sc2c(c1-c1nc3ccccc3s1)CCN(Cc1ccccc1)C2,5.50,
CC(=O)NCCc1ccc(O)c(O)c1,7.14,
Cc1ccc(Nc2nc(Nc3cccc(F)c3)nc3nccnc23)c(C)c1,,> 20 µM (inactive)
N#CC(C#N)=Cc1ccc(O)c(O)c1,,> 20 µM (inactive)
CCOC(=O)c1c(-c2ccccc2)csc1N=Cc1nc(-c2ccco2)oc1O,,> 20 µM (inactive)
CCN(CC)CCCC(C)Nc1c2ccc(Cl)cc2nc2ccc(OC)cc12 (configuration not stated),5.31 and 5.85,
